Measurements as given in patent US10830762B2, “Compositions and methods for inducing conformational changes in cereblon and other E3 ubiquitin ligases” (Celgene Corporation, priority 2015, dated 2020).

Tests used:
CRBN = CRBN (Homo sapiens, UniProt Q96SW2); assay: Thalidomide analog affinity bead competition assay in U266 cell extracts; format: binding; parameters: endogenous in cells; host or cells: U266 multiple myeloma cells (extract); settings: competition with thalidomide analog affinity beads
Procedure: (§1) Immunoblot analysis of extracts prepared from U266 multiple myeloma cells and pre-incubated with vehicle DMSO (D), Pomalidomide (Pom) or Compound C at the indicated concentrations, and bound to thalidomide analog affinity beads, washed and eluted with SDS buffer as previously described (Ito et al, 2010; Lopez-Girona et al, 2012). Samples were subjected to SDS-PAGE and immunoblot analysis using anti-CRBN 65-76 (1:10,000 dilution; Red signal) and anti-DDB1 (Cell Signaling) (1:2,000 dilution; Green signal). […] Cell proliferation assay of DF15 (sensitive), DF15R (resistant; CRBNnull) cells treated with a dose response of Compound C. Assays were done in triplicate and error bars represent s.d. Data for each cell line was normalized to treatment with vehicle (DMSO). […] Cell proliferation assay of DF15 (sensitive), DF15R (resistant; CRBNnull), DF15R-hCRBNWT (human CRBN), DF15R-RFP cells treated with a dose response of Compound C. […] Assays were done in triplicate and error bars represent s.d. Data for each cell line was normalized to treatment with vehicle (DMSO).
Coupling of thalidomide analog to FG-magnetic nanoparticle beads (Tamagawa Seiko Co. Tokyo, Japan) was carried out as described (Ito et al., Science, 2010. 327(5971):1345-50), and cell extract binding assays to these beads were performed with minor modifications. […]

[1] = system: human GSPT1 (G575N mutation); assay: Growth inhibition and activation of ATF4 and apoptosis pathways with GSPT1 G575N mutation; format: cell-based
human GSPT1 [2] = biological target: T1, human GSPT1 (Homo sapiens, UniProt P15170, G437N); assay: Compound-induced GSPT1 degradation by Western blot in 293T HEK cells; format: cell-based; settings: GSPT1 G575N mutation
T1 construct: expressed in transfected cells; host or cells: 293T HEK cells
From the text: (§2) FIG. 28A illustrates a full-length human GSPT1 and a truncated mutant form, which lacks the N-terminal 138 amino acid residues. […] Thus, the truncated mutant human GSPT1 maintained the functionality of the full-length protein and can be used in studies below.
(§3) To determine the critical region in the human GSPT1 that contributes to the Compound C-induced degradation, a plethora of chimeric constructs containing various domains of human GSPT1 and yeast SUP35 were generated (FIG. 30A). These recombinant proteins were tested for Compound C-induced degradation by Western blot (FIGS. 30B-30D). As the results shown, a 32-amino acid fragment in the C-terminus of human GSPT1 (residues 562-593) is critical for Compound C-induced degradation.
(§4) To further map the essential amino acid residues in this 32-amino acid fragment of human GSPT1, various point mutations within the fragment were generated and tested for Compound C-induced degradation of GSPT1 and Compound C-induced interaction between CRBN and GSPT1. […] Among these homologues, only the yeast SUP35 is resistant to Compound C. […] Other mutations, […].

human GSPT1 [3] = biological target: T2, human GSPT1 (Homo sapiens, UniProt P15170); assay: as above; format: cell-based; settings: full-length and truncated (lacking N-terminal 138 residues) GSPT1
T2 construct: expressed in transfected cells; host or cells: 293T HEK cells
From the text: as §2, §3, §4

[4] = system: panel of tumor cell lines (B-lymphoma, breast, CNS, colon, kidney, leukemia, lung, melanoma, multiple myeloma, ovary, prostate); assay: Potency across a panel of tumor cell lines; format: cell-based
Procedure: The potency of Compound C was assessed across a panel of tumor cell lines, including B-lymphoma, breast, CNS, colon, kidney, leukemia, lung, melanoma, multiple myeloma, ovary and prostate.

[5] = system: TMD8 (ABC) or Karpas 422 (GCB) cells; assay: 3H-thymidine incorporation proliferation assay with lenalidomide co-treatment; format: cell-based; settings: co-treatment with 10 μM lenalidomide; 3H-thymidine incorporation
CRBN-GSPT1 = assay: Compound-induced interaction (in vitro binding) of CRBN with GSPT1; parameters: species or system human
From the text: as §2, §4

[6] = system: H929 multiple myeloma cell line; assay: Apoptosis in multiple myeloma cell line H929; format: cell-based; settings: 0.01 nM to 1000 nM; assessed 24 hrs later
Procedure: The multiple myeloma cell line, H929, was cultured and treated with Compound C or other CMA analogs at various concentrations from 0.01 nM to 1000 nM. Apoptosis was assessed at 24 hrs. later.

IKZF1 = biological target: T3, IKZF1 (Homo sapiens, UniProt Q13422+Q96SW2); assay: IKZF1 degradation in HEK293T cells co-transfected with wild-type or mutant CRBN; format: cell-based
T3 construct: expressed in transfected cells; host or cells: HEK293T cells

[7] = system: DF15 / DF15R myeloma cells; assay: Cell proliferation assay of DF15, DF15R and DF15R re-expressing CRBN treated with Compound C; format: cell-based
Procedure: as §1

murine cells = assay: Antiproliferative and pro-apoptotic effects on murine cells; format: cell-based; settings: murine cells (data not shown)
From the text: (§5) A key feature of immunomodulatory drug biology is the striking resistance observed in rodent species. This feature was historically a confounding factor in establishing the efficacy and safety risks associated with thalidomide. It was shown that, in contrast to human cereblon, murine cereblon is unable to rescue immunomodulatory drug sensitivity. Chamberlain et al., Nature structural & mole. biol. 2014, 21:803-809. It was proposed that the molecular basis for this would lie in two variable residues on the cereblon surface proximal to the tri-Tryp pocket, E377V and V388I. […] Kronke et al., Nature 2015, 523:183-188. Despite the potent effect seen on human cells, murine cells are resistant to the antiproliferative and pro-apoptotic effects of Compound C (data not shown). […] The dependence of GSPT1 degradation upon E377 can be rationalized by the crystal structure: the side chain of E377 mediates hydrogen bond interactions with the urea moiety of Compound C.

yeast homologue SUP35 = yeast homologue SUP35 (Saccharomyces cerevisiae, UniProt P05453); assay: Compound-induced degradation of yeast homologue SUP35; format: cell-based; settings: yeast SUP35, in contrast to human GSPT1
GSPT1 [8] = biological target: T4, GSPT1 (Homo sapiens, UniProt P15170+Q96SW2); assay: GSPT1 degradation in HEK293T cells transfected with wild-type or mutant CRBN; format: cell-based; settings: murine CRBN V377E
T4 construct: endogenous in cells; host or cells: HEK293T cells
From the text: as §5

GSPT1 [9] = biological target: T5, GSPT1 (Homo sapiens, UniProt P15170+Q96SW2, E377V/V100A); assay: as above; format: cell-based; settings: human CRBN E377V
T5 construct: endogenous in cells; host or cells: HEK293T cells
From the text: as §5

GSPT1 [10] = biological target: T6, GSPT1 (Homo sapiens, UniProt P15170+Q96SW2, V100A/V388I); assay: as above; format: cell-based; settings: human CRBN V388I
T6 construct: endogenous in cells; host or cells: HEK293T cells
From the text: as §5

GSPT1 [11] = biological target: T7, GSPT1 (Homo sapiens, UniProt P15170+Q96SW2, V100A); assay: as above; format: cell-based; settings: human WT CRBN
T7 construct: endogenous in cells; host or cells: HEK293T cells
From the text: as §5

[12] = system: MDA-MB-231 breast cancer cells; assay: Growth inhibition and pro-apoptotic activity in breast cancer cells treated with CRBN siRNA; format: cell-based; settings: CRBN siRNA vs negative control
Procedure: Breast cancer cells (MDA-MB-231) were treated with CRBN siRNA or a negative control. Compound C was added at a concentration between 0 to 100 μM, and CRBN levels were assessed at 48 hours post treatment.
Compound C-mediated growth inhibition and pro-apoptotic activity were also assessed.

## Cc1ccc(NC(=O)NCc2ccc3c(c2)CN(C2CCC(=O)NC2=O)C3=O)cc1Cl (stereo not drawn) [Compound C, 1-(3-chloro-4-methylphenyl)-3-((2-(2,6-dioxopiperidin-3-yl)-1-oxoisoindolin-5-yl)methyl)urea]
CRBN
  binding to CRBN protein in MM cell extracts: binds CRBN protein
[1]
  growth inhibition and downstream activation of ATF4 and apoptosis pathways: blocked Compound C-induced growth inhibition and Compound C-induced downstream activation of ATF4 and apoptosis pathways
Human GSPT1 [2]
  GSPT1 degradation: blocked Compound C-induced degradation
Human GSPT1 [3]
  GSPT1 degradation: induced degradation of the full-length GSPT1 and the truncated form
[4]; across the cancer cell panel
  Therapeutic Index: overall low Therapeutic Index
[4]; panel of tumor cell lines
  potency / activity in tumor cell lines: potent across a panel of tumor lines
[5]
  anti-proliferative effects on co-treatment with lenalidomide: blocks anti-proliferative effects
CRBN-GSPT1; GSPT1 G575N mutation
  interaction between CRBN and GSPT1: blocked Compound C-induced interaction between CRBN and GSPT1
CRBN-GSPT1; full-length and truncated GSPT1
  interaction of CRBN with GSPT1: induced interaction of CRBN with the full-length GSPT1 as well as the truncated GSPT1
[6]
  early apoptosis: induced early apoptosis
IKZF1; human CRBN V388I
  IKZF1 degradation: blocks the degradation of IKZF1
IKZF1; human WT CRBN
  IKZF1 degradation: degradation of both IKZF1 and GSPT1
[7]; DF15 (sensitive) vs DF15R (CRBN null)
  CRBN dependence of anti-proliferative activity: CRBN is required for the anti-proliferative activity
[7]; DF15R-hCRBNWT
  anti-proliferative activity after re-expression of human CRBN: rescues Compound C anti-proliferative activity
Murine cells
  antiproliferative and pro-apoptotic effects: resistant
Yeast homologue SUP35
  SUP35 degradation: did not exhibit Compound C-induced degradation
GSPT1 [8]
  GSPT1 degradation: restores GSPT1 degradation
GSPT1 [9]
  GSPT1 degradation: blocks the degradation of GSPT1
GSPT1 [10]
  GSPT1 degradation: maintained
GSPT1 [11]
  GSPT1 degradation: degradation of both IKZF1 and GSPT1
[12]
  CRBN dependence of growth inhibition and pro-apoptotic activity: CRBN is required for both inhibition and pro-apoptotic activity
